# According to patent publication US12194124B2, “Personal care compositions for treating odor causing bacteria and methods for the same” (Colgate-Palmolive Company, priority 2019, dated 2025):
# System: S. Epidermidis
# Experiment: Growth inhibition assay in 96-well plate, optical density of S. Epidermidis
# Assay type: cell-based, Staphylococcus epidermidis
# Experimental: The efficacy of 2-butyl octanol for selectively promoting, inhibiting, reducing, and/or treating bacterial growth was evaluated. Particularly, the efficacy of 2-butyl octanol for selectively promoting, inhibiting, reducing, and/or treating bacterial growth of Corynebacterium and Staphylococcus was evaluated. To evaluate the efficacy, an active solution was prepared by emulsifying 2-butyl octanol with a nonionic surfactant, namely, Polysorbate 80. The active solution included the 2-butyl octanol and the Polysorbate 80 in a ratio of about 83:17. Both positive controls (including no active solution) and negative controls (including no bacteria) were also prepared.
# A 96-well plate was utilized to evaluate the growth of the respective bacteria at varying dilutions. Each of the wells of a 96-well plate was aseptically filled with about 100 μL of Tryptic Soy Broth (TSB). In the first well of each row, about 100 μL of either the active solution (including the 2-butyl octanol and Polysorbate 80) or the desired solvent for the respective positive and negative controls was added to thereby provide a total of about 200 μL in the first well of the each respective row. A multi-channel pipette was then utilized to prepare a two-fold dilution in each column. Specifically, a multi-channel pipette set to about 100 μL was utilized to mix and transfer about 100 μL of the 200 μL from the wells of the first column to the respective wells of a subsequent column. This was repeated for each of the remaining eleven columns. About 100 μL of the twelfth column was removed, thereby leaving about 100 μL in each of the 96 wells. […] Specifically, a phosphate buffered saline (PBS) was utilized for the negative control. About 100 μL of the respective bacteria adjusted to 0.1 optical density (OD) bacteria was added to all other wells. The well plate was then incubated overnight at about 37° C. in a growth inhibition assay machine. Measurements were taken at about one hour increments.
compound,measurement,setting,value
"CCCCCCC(CO)CCCC (stereo not shown) [2-butyl octanol, 2-butyl-1-octanol]",Measured Optical Density of S. Epidermidis,"0.02% 2-Butyl Octanol, 1 Hour",0.07
same,Measured Optical Density of S. Epidermidis,"0.02% 2-Butyl Octanol, 2 Hour",0.327
same,Measured Optical Density of S. Epidermidis,"0.02% 2-Butyl Octanol, 3 Hour",0.519
same,Measured Optical Density of S. Epidermidis,"0.02% 2-Butyl Octanol, 4 Hour",0.561
same,Measured Optical Density of S. Epidermidis,"0.02% 2-Butyl Octanol, 5 Hour",0.548
same,Measured Optical Density of S. Epidermidis,"0.02% 2-Butyl Octanol, 6 Hour",0.564
same,Measured Optical Density of S. Epidermidis,"0.02% 2-Butyl Octanol, 7 Hour",0.586
same,Measured Optical Density of S. Epidermidis,"0.02% 2-Butyl Octanol, 8 Hour",0.593
same,Measured Optical Density of S. Epidermidis,"0.02% 2-Butyl Octanol, 9 Hour",0.602
same,Measured Optical Density of S. Epidermidis,"0.02% 2-Butyl Octanol, 10 Hour",0.623
same,Measured Optical Density of S. Epidermidis,"0.02% 2-Butyl Octanol, 11 Hour",0.652
same,Measured Optical Density of S. Epidermidis,"0.02% 2-Butyl Octanol, 12 Hour",0.651
same,Measured Optical Density of S. Epidermidis,"0.02% 2-Butyl Octanol, 13 Hour",0.66
same,Measured Optical Density of S. Epidermidis,"0.02% 2-Butyl Octanol, 14 Hour",0.689
same,Measured Optical Density of S. Epidermidis,"0.02% 2-Butyl Octanol, 15 Hour",0.809
same,Measured Optical Density of S. Epidermidis,"0.02% 2-Butyl Octanol, 16 Hour",0.893
same,Measured Optical Density of S. Epidermidis,"0.02% 2-Butyl Octanol, 17 Hour",0.951
same,Measured Optical Density of S. Epidermidis,"0.02% 2-Butyl Octanol, 18 Hour",0.97
same,Measured Optical Density of S. Epidermidis,"0.04% 2-Butyl Octanol, 1 Hour",0.088
same,Measured Optical Density of S. Epidermidis,"0.04% 2-Butyl Octanol, 2 Hour",0.351
same,Measured Optical Density of S. Epidermidis,"0.04% 2-Butyl Octanol, 3 Hour",0.55
same,Measured Optical Density of S. Epidermidis,"0.04% 2-Butyl Octanol, 4 Hour",0.583
same,Measured Optical Density of S. Epidermidis,"0.04% 2-Butyl Octanol, 5 Hour",0.578
same,Measured Optical Density of S. Epidermidis,"0.04% 2-Butyl Octanol, 6 Hour",0.592
same,Measured Optical Density of S. Epidermidis,"0.04% 2-Butyl Octanol, 7 Hour",0.613
same,Measured Optical Density of S. Epidermidis,"0.04% 2-Butyl Octanol, 8 Hour",0.64
same,Measured Optical Density of S. Epidermidis,"0.04% 2-Butyl Octanol, 9 Hour",0.651
same,Measured Optical Density of S. Epidermidis,"0.04% 2-Butyl Octanol, 10 Hour",0.664
same,Measured Optical Density of S. Epidermidis,"0.04% 2-Butyl Octanol, 11 Hour",0.666
same,Measured Optical Density of S. Epidermidis,"0.04% 2-Butyl Octanol, 12 Hour",0.656
same,Measured Optical Density of S. Epidermidis,"0.04% 2-Butyl Octanol, 13 Hour",0.652
same,Measured Optical Density of S. Epidermidis,"0.04% 2-Butyl Octanol, 14 Hour",0.675
same,Measured Optical Density of S. Epidermidis,"0.04% 2-Butyl Octanol, 15 Hour",0.756
same,Measured Optical Density of S. Epidermidis,"0.04% 2-Butyl Octanol, 16 Hour",0.825
same,Measured Optical Density of S. Epidermidis,"0.04% 2-Butyl Octanol, 17 Hour",0.915
same,Measured Optical Density of S. Epidermidis,"0.04% 2-Butyl Octanol, 18 Hour",0.961
same,Measured Optical Density of S. Epidermidis,"0.08% 2-Butyl Octanol, 1 Hour",0.111
same,Measured Optical Density of S. Epidermidis,"0.08% 2-Butyl Octanol, 2 Hour",0.482
same,Measured Optical Density of S. Epidermidis,"0.08% 2-Butyl Octanol, 3 Hour",0.688
same,Measured Optical Density of S. Epidermidis,"0.08% 2-Butyl Octanol, 4 Hour",0.703
same,Measured Optical Density of S. Epidermidis,"0.08% 2-Butyl Octanol, 5 Hour",0.684
same,Measured Optical Density of S. Epidermidis,"0.08% 2-Butyl Octanol, 6 Hour",0.677
same,Measured Optical Density of S. Epidermidis,"0.08% 2-Butyl Octanol, 7 Hour",0.662
same,Measured Optical Density of S. Epidermidis,"0.08% 2-Butyl Octanol, 8 Hour",0.652
same,Measured Optical Density of S. Epidermidis,"0.08% 2-Butyl Octanol, 9 Hour",0.653
same,Measured Optical Density of S. Epidermidis,"0.08% 2-Butyl Octanol, 10 Hour",0.658
same,Measured Optical Density of S. Epidermidis,"0.08% 2-Butyl Octanol, 11 Hour",0.646
same,Measured Optical Density of S. Epidermidis,"0.08% 2-Butyl Octanol, 12 Hour",0.63
same,Measured Optical Density of S. Epidermidis,"0.08% 2-Butyl Octanol, 13 Hour",0.632
same,Measured Optical Density of S. Epidermidis,"0.08% 2-Butyl Octanol, 14 Hour",0.662
same,Measured Optical Density of S. Epidermidis,"0.08% 2-Butyl Octanol, 15 Hour",0.741
same,Measured Optical Density of S. Epidermidis,"0.08% 2-Butyl Octanol, 16 Hour",0.795
same,Measured Optical Density of S. Epidermidis,"0.08% 2-Butyl Octanol, 17 Hour",0.883
same,Measured Optical Density of S. Epidermidis,"0.08% 2-Butyl Octanol, 18 Hour",0.943
same,Measured Optical Density of S. Epidermidis,"0.16% 2-Butyl Octanol, 1 Hour",0.148
same,Measured Optical Density of S. Epidermidis,"0.16% 2-Butyl Octanol, 2 Hour",0.564
same,Measured Optical Density of S. Epidermidis,"0.16% 2-Butyl Octanol, 3 Hour",0.76
same,Measured Optical Density of S. Epidermidis,"0.16% 2-Butyl Octanol, 4 Hour",0.786
same,Measured Optical Density of S. Epidermidis,"0.16% 2-Butyl Octanol, 5 Hour",0.778
same,Measured Optical Density of S. Epidermidis,"0.16% 2-Butyl Octanol, 6 Hour",0.764
same,Measured Optical Density of S. Epidermidis,"0.16% 2-Butyl Octanol, 7 Hour",0.757
same,Measured Optical Density of S. Epidermidis,"0.16% 2-Butyl Octanol, 8 Hour",0.741
same,Measured Optical Density of S. Epidermidis,"0.16% 2-Butyl Octanol, 9 Hour",0.729
same,Measured Optical Density of S. Epidermidis,"0.16% 2-Butyl Octanol, 10 Hour",0.726
same,Measured Optical Density of S. Epidermidis,"0.16% 2-Butyl Octanol, 11 Hour",0.718
same,Measured Optical Density of S. Epidermidis,"0.16% 2-Butyl Octanol, 12 Hour",0.702
same,Measured Optical Density of S. Epidermidis,"0.16% 2-Butyl Octanol, 13 Hour",0.695
same,Measured Optical Density of S. Epidermidis,"0.16% 2-Butyl Octanol, 14 Hour",0.702
same,Measured Optical Density of S. Epidermidis,"0.16% 2-Butyl Octanol, 15 Hour",0.764
same,Measured Optical Density of S. Epidermidis,"0.16% 2-Butyl Octanol, 16 Hour",0.801
same,Measured Optical Density of S. Epidermidis,"0.16% 2-Butyl Octanol, 17 Hour",0.844
same,Measured Optical Density of S. Epidermidis,"0.16% 2-Butyl Octanol, 18 Hour",0.874
same,growth of S. epidermidis,2-butyl octanol about 0.02 weight % to about 5.2 weight %,did not inhibit the growth of and/or promoted the growth of
same,Measured Optical Density of S. Epidermidis,"5.2% 2-Butyl Octanol, 1 Hour",0.257
same,Measured Optical Density of S. Epidermidis,"5.2% 2-Butyl Octanol, 2 Hour",0.501
same,Measured Optical Density of S. Epidermidis,"5.2% 2-Butyl Octanol, 3 Hour",0.583
same,Measured Optical Density of S. Epidermidis,"5.2% 2-Butyl Octanol, 4 Hour",0.624
same,Measured Optical Density of S. Epidermidis,"5.2% 2-Butyl Octanol, 5 Hour",0.665
same,Measured Optical Density of S. Epidermidis,"5.2% 2-Butyl Octanol, 6 Hour",0.723
same,Measured Optical Density of S. Epidermidis,"5.2% 2-Butyl Octanol, 7 Hour",0.855
same,Measured Optical Density of S. Epidermidis,"5.2% 2-Butyl Octanol, 8 Hour",0.918
same,Measured Optical Density of S. Epidermidis,"5.2% 2-Butyl Octanol, 9 Hour",0.994
same,Measured Optical Density of S. Epidermidis,"5.2% 2-Butyl Octanol, 10 Hour",1.052
same,Measured Optical Density of S. Epidermidis,"5.2% 2-Butyl Octanol, 11 Hour",1.067
same,Measured Optical Density of S. Epidermidis,"5.2% 2-Butyl Octanol, 12 Hour",1.066
same,Measured Optical Density of S. Epidermidis,"5.2% 2-Butyl Octanol, 13 Hour",1.081
same,Measured Optical Density of S. Epidermidis,"5.2% 2-Butyl Octanol, 14 Hour",1.105
same,Measured Optical Density of S. Epidermidis,"5.2% 2-Butyl Octanol, 15 Hour",1.118
same,Measured Optical Density of S. Epidermidis,"5.2% 2-Butyl Octanol, 16 Hour",1.127
same,Measured Optical Density of S. Epidermidis,"5.2% 2-Butyl Octanol, 17 Hour",1.142
same,Measured Optical Density of S. Epidermidis,"5.2% 2-Butyl Octanol, 18 Hour",1.127
